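Abbreviation: GI50, concentration required for 50% inhibition of growth. At the TGI there is no net growth.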
Columns and labels:
Experiment in all cases: NCI tumour cell line growth inhibition, 384-well format
OVCAR-5 ovarian = tested on: OVCAR-5 ovarian
NCI/ADR-RES ovarian = tested on: NCI/ADR-RES ovarian
TK-10 renal = tested on: TK-10 renal
UACC-257 melanoma = tested on: UACC-257 melanoma
MALME-3M melanoma = tested on: MALME-3M melanoma
SNB-19 CNS = tested on: SNB-19 CNS
MCF7 breast = tested on: MCF7 breast
NCI-H23 lung = tested on: NCI-H23 lung
A549 NSCLC = tested on: A549 NSCLC
SNB-75 CNS = tested on: SNB-75 CNS
ACHN renal = tested on: ACHN renal
NCI-H322M lung = tested on: NCI-H322M lung
HCT-15 colon = tested on: HCT-15 colon
LOX IMVI melanoma = tested on: LOX IMVI melanoma
MOLT-4 leukemia = tested on: MOLT-4 leukemia
HCC-2998 colon = tested on: HCC-2998 colon
HS 578T breast = tested on: HS 578T breast
OVCAR-8 ovarian = tested on: OVCAR-8 ovarian
RXF 393 renal = tested on: RXF 393 renal
HOP-92 NSCLC = tested on: HOP-92 NSCLC
KM12 colon = tested on: KM12 colon
CCRF-CEM leukemia = tested on: CCRF-CEM leukemia
K-562 leukemia = tested on: K-562 leukemia
SF-268 CNS = tested on: SF-268 CNS
SF-539 CNS = tested on: SF-539 CNS
HT29 colon = tested on: HT29 colon
SN12C renal = tested on: SN12C renal
SW-620 colon = tested on: SW-620 colon
UO-31 renal = tested on: UO-31 renal
HCT-116 colon = tested on: HCT-116 colon
UACC-62 melanoma = tested on: UACC-62 melanoma
MDA-MB-231 breast = tested on: MDA-MB-231 breast
OVCAR-4 ovarian = tested on: OVCAR-4 ovarian
SK-MEL-28 melanoma = tested on: SK-MEL-28 melanoma
IGROV1 ovarian = tested on: IGROV1 ovarian
NCI-H226 lung = tested on: NCI-H226 lung
DU-145 prostate = tested on: DU-145 prostate
BT-549 breast = tested on: BT-549 breast
A498 renal = tested on: A498 renal
SK-OV-3 ovarian = tested on: SK-OV-3 ovarian
PC-3 prostate = tested on: PC-3 prostate
SF-295 CNS = tested on: SF-295 CNS
COLO 205 colon = tested on: COLO 205 colon
HOP-62 NSCLC = tested on: HOP-62 NSCLC
OVCAR-3 ovarian = tested on: OVCAR-3 ovarian
MDA-MB-468 breast = tested on: MDA-MB-468 breast

Compound `COc1cc(Nc2ncc3c(n2)-c2ccc(Cl)cc2C(c2c(F)cccc2OC)=NC3)ccc1C(=O)O` has a GI50 (OVCAR-5 ovarian) of 4.4 µM, a TGI (OVCAR-5 ovarian) of 30.3 µM and a GI50 (NCI/ADR-RES ovarian) of 0.369 µM. For the same compound, the TGI (NCI/ADR-RES ovarian) was 31.4 µM, the GI50 (TK-10 renal) was 4.77 µM and the TGI (TK-10 renal) was 21.7 µM. The GI50 (UACC-257 melanoma) was 13.7 µM, the TGI (UACC-257 melanoma) was 52.6 µM and the GI50 (MALME-3M melanoma) was 17.9 µM. The TGI (MALME-3M melanoma) was 60.7 µM, the GI50 (SNB-19 CNS) was 9.37 µM and the TGI (SNB-19 CNS) was 61.9 µM. For the same compound, the GI50 (MCF7 breast) was 1.7 µM, the TGI (MCF7 breast) was > 100 µM and the GI50 (NCI-H23 lung) was 1.26 µM. It also gave a TGI (NCI-H23 lung) of 14.9 µM, a GI50 (A549 NSCLC) of 0.0795 µM and a TGI (A549 NSCLC) of 16.8 µM. It also gave a GI50 (SNB-75 CNS) of 3.1 µM, a TGI (SNB-75 CNS) of 17 µM and a GI50 (ACHN renal) of 1.81 µM. The TGI (ACHN renal) was 19.7 µM, the GI50 (NCI-H322M lung) was 19.3 µM and the TGI (NCI-H322M lung) was > 100 µM. For the same compound, the GI50 (HCT-15 colon) was 0.0581 µM, the TGI (HCT-15 colon) was 37.2 µM and the GI50 (LOX IMVI melanoma) was 0.725 µM. It also gave a TGI (LOX IMVI melanoma) of 17.8 µM, a TGI (MOLT-4 leukemia) of 0.0209 µM and a GI50 (HCC-2998 colon) of 3.24 µM. The TGI (HCC-2998 colon) was 47.9 µM, the GI50 (HS 578T breast) was 0.0403 µM and the TGI (HS 578T breast) was 12.4 µM. For the same compound, the GI50 (OVCAR-8 ovarian) was 7.27 µM, the TGI (OVCAR-8 ovarian) was 36.9 µM and the GI50 (RXF 393 renal) was 0.0513 µM. It also gave a TGI (RXF 393 renal) of 7.31 µM, a GI50 (HOP-92 NSCLC) of 2.18 µM and a TGI (HOP-92 NSCLC) of 17.2 µM. For the same compound, the GI50 (KM12 colon) was 0.0838 µM, the TGI (KM12 colon) was > 100 µM and the GI50 (CCRF-CEM leukemia) was 0.0192 µM. The TGI (CCRF-CEM leukemia) was 0.0773 µM, the GI50 (K-562 leukemia) was 0.0367 µM and the TGI (K-562 leukemia) was 11.5 µM. It also gave a GI50 (SF-268 CNS) of 0.0113 µM, a TGI (SF-268 CNS) of 0.0549 µM and a GI50 (SF-539 CNS) of 0.0651 µM. The TGI (SF-539 CNS) was 25.2 µM, the GI50 (HT29 colon) was 1.49 µM and the TGI (HT29 colon) was > 100 µM. The GI50 (SN12C renal) was 0.0522 µM, the TGI (SN12C renal) was 17 µM and the GI50 (SW-620 colon) was 0.202 µM. It also gave a TGI (SW-620 colon) of 28.1 µM, a GI50 (UO-31 renal) of 4.32 µM and a TGI (UO-31 renal) of 20.7 µM. For the same compound, the GI50 (HCT-116 colon) was 0.0293 µM, the TGI (HCT-116 colon) was 25.2 µM and the GI50 (UACC-62 melanoma) was 0.768 µM. For the same compound, the TGI (UACC-62 melanoma) was 35.4 µM, the GI50 (MDA-MB-231 breast) was 2.72 µM and the TGI (MDA-MB-231 breast) was 23.6 µM. The GI50 (OVCAR-4 ovarian) was 9.41 µM, the TGI (OVCAR-4 ovarian) was 50.4 µM and the GI50 (SK-MEL-28 melanoma) was 13.2 µM. For the same compound, the TGI (SK-MEL-28 melanoma) was 51.7 µM, the GI50 (IGROV1 ovarian) was 0.743 µM and the TGI (IGROV1 ovarian) was 13.5 µM. For the same compound, the GI50 (NCI-H226 lung) was 1.28 µM, the TGI (NCI-H226 lung) was 10.9 µM and the GI50 (DU-145 prostate) was 10.6 µM. For the same compound, the TGI (DU-145 prostate) was 26.6 µM, the GI50 (BT-549 breast) was 0.0986 µM and the TGI (BT-549 breast) was 20.1 µM. For the same compound, the GI50 (A498 renal) was 0.0833 µM, the TGI (A498 renal) was 29.6 µM and the GI50 (SK-OV-3 ovarian) was 4.11 µM. The TGI (SK-OV-3 ovarian) was 22.6 µM, the GI50 (PC-3 prostate) was 12 µM and the TGI (PC-3 prostate) was 45.2 µM. It also gave a GI50 (SF-295 CNS) of 0.088 µM, a TGI (SF-295 CNS) of 24.6 µM and a GI50 (COLO 205 colon) of 0.0376 µM. The TGI (COLO 205 colon) was > 100 µM, the GI50 (HOP-62 NSCLC) was 0.179 µM and the TGI (HOP-62 NSCLC) was 31.9 µM. For the same compound, the GI50 (OVCAR-3 ovarian) was 0.0915 µM, the TGI (OVCAR-3 ovarian) was 14.6 µM and the GI50 (MDA-MB-468 breast) was 0.0199 µM. The TGI (MDA-MB-468 breast) was 0.0534 µM.

— PubChem BioAssay (NCI)
